Entries after “also recorded” stand apart in the source; their conditions may differ.
Assays:
[1] = tested on: NCI-H716 cells; conditions: cited from earlier work
[2] = target: T1, FXR-RXR heterodimers (Homo sapiens, UniProt Q96RI1); assay: Specific DNA binding by FXR-RXR heterodimers in vitro; format: biochemical; conditions: data not shown
T1 sequence (Q96RI1 1-486): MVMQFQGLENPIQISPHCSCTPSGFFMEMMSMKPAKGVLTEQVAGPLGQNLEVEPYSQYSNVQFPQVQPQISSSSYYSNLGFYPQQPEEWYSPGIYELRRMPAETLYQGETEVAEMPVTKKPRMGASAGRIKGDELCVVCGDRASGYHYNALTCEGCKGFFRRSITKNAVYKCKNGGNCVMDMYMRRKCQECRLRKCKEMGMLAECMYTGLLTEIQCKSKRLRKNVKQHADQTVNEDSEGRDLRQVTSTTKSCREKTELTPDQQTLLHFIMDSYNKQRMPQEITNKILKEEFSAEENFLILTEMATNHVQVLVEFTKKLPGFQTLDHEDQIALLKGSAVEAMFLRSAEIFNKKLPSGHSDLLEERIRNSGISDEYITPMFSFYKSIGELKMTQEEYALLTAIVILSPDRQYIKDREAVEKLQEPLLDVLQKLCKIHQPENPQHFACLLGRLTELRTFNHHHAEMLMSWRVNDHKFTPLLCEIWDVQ
T1 sequence (P19793 1-462 partner): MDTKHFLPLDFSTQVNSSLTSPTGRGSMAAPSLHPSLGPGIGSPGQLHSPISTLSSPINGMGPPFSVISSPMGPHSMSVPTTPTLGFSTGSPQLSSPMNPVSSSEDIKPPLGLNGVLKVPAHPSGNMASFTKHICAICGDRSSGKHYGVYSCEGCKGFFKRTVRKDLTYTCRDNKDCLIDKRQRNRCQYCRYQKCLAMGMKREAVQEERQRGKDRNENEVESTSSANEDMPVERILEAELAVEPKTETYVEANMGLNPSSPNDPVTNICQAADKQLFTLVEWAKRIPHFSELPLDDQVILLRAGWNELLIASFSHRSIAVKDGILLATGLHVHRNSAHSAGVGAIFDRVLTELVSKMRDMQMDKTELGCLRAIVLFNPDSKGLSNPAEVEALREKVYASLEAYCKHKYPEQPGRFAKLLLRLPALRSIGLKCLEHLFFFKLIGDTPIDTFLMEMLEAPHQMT

COc1ccc2cc3[n+](cc2c1OC)CCc1cc2c(cc1-3)OCO2 [berberine]
Prohormone convertase 3 and proglucagon mRNA expression [1]: promoted both prohormone convertase 3 and proglucagon mRNA expression | GLP-1 release ([1]; in vitro): modulated GLP-1 release; also recorded: concentration-dependently stimulated GLP-1 release | Specific DNA binding by FXR-RXR heterodimers [2]: did not affect specific DNA binding

— patent US10703761B2, “Bile acid receptor modulators and methods of use thereof” (City of Hope, priority 2016, dated 2020)
